Assay results: ChEMBL document CHEMBL1201862, “PubChem BioAssay data set” (2004)
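The compound was tested at five concentrations on cells cultured in 96-well plates, with a 48-hour exposure period. The concentration for 50% growth inhibition is given as GI50.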 Active and inactive are the calls of the source. No stated cut-off is given here; in the data, active = GI50 up to about 1.1 µM and inactive = higher.

Legend:
Assay in all cases: inhibition of tumour cell growth, NCI panel, 48 h
[1] = tested on: SF-268
[2] = tested on: RPMI-8226
[3] = tested on: A498
[4] = tested on: CCRF-CEM
[5] = tested on: HCC 2998
[6] = tested on: CAKI-1
[7] = tested on: OVCAR-3
[8] = tested on: OVCAR-5
[9] = tested on: COLO 205
[10] = tested on: HCT-116
[11] = tested on: OVCAR-4
[12] = tested on: SK-MEL-28
[13] = tested on: MOLT-4
[14] = tested on: MDA-MB-435
[15] = tested on: HL-60
[16] = tested on: KM12
[17] = tested on: PC-3
[18] = tested on: TK-10
[19] = tested on: Malme-3M
[20] = tested on: OVCAR-8

Row | Compound | GI50 [1] | GI50 [2] | GI50 [3] | GI50 [4] | GI50 [5] | GI50 [6] | GI50 [7] | GI50 [8] | GI50 [9] | GI50 [10] | GI50 [11] | GI50 [12] | GI50 [13] | GI50 [14] | GI50 [15] | GI50 [16] | GI50 [17] | GI50 [18] | GI50 [19] | GI50 [20]
1 | COc1cnc2oc3ccc(O)cc3c2c1-c1ccccc1 | 4 µM (inactive) | > 100 µM (inactive) | > 100 µM (inactive) | 59.3 µM (inactive) | 27.7 µM (inactive) | > 100 µM (inactive) | 4.27 µM (inactive) | 24.1 µM (inactive) | 30.6 µM (inactive) | 15.2 µM (inactive) | > 100 µM (inactive) | > 100 µM (inactive) | > 100 µM (inactive) | > 100 µM (inactive) | > 100 µM (inactive) | 83.2 µM (inactive) | > 100 µM (inactive) | > 100 µM (inactive) | 40 µM (inactive) | 55.3 µM (inactive)
2 | Cc1ccc(O)c(C(c2cccc(C(c3cc(C)ccc3O)c3cc(C)ccc3O)c2)c2cc(C)ccc2O)c1 | 1.6 µM (inactive) | 1.55 µM (inactive) | 1.53 µM (inactive) | 2.38 µM (inactive) | 1.86 µM (inactive) | 1.52 µM (inactive) | 2.21 µM (inactive) | 1.69 µM (inactive) | 1.21 µM (inactive) | 1.89 µM (inactive) | 2.22 µM (inactive) | 1.83 µM (inactive) | 2.6 µM (inactive) | 1.75 µM (inactive) | 2.01 µM (inactive) | 1.65 µM (inactive) | 1.77 µM (inactive) | 1.82 µM (inactive) | 1.87 µM (inactive) | 2 µM (inactive)
3 | Cc1cc(O)c2c(c1)CC(O)C1=C2C(=O)c2c(O)ccc(OC3CC(O)C(OC4CC(OC5CCC(O)C(C)O5)C(O)C(C)O4)C(C)O3)c2C1=O (stereo not given) | 1.74 µM (inactive) | 0.53 µM (active) | 2.33 µM (inactive) | 0.203 µM (active) | 1.85 µM (inactive) | 1.71 µM (inactive) | 0.662 µM (active) | 3.81 µM (inactive) | 1.39 µM (inactive) | 1.75 µM (inactive) | 1.79 µM (inactive) | 1.92 µM (inactive) | 0.305 µM (active) | 1.03 µM (active) | 0.386 µM (active) | 1.74 µM (inactive) | 1.71 µM (inactive) | 2.17 µM (inactive) | 0.789 µM (active) | 1.65 µM (inactive)
4 | O=c1[nH]c(=S)[nH]cc1CN1CCOCC1 | > 100 µM (inactive) | > 100 µM (inactive) | > 100 µM (inactive) | > 100 µM (inactive) | > 100 µM (inactive) | > 100 µM (inactive) | > 100 µM (inactive) | > 100 µM (inactive) | > 100 µM (inactive) | > 100 µM (inactive) | > 100 µM (inactive) | > 100 µM (inactive) | > 100 µM (inactive) | > 100 µM (inactive) | > 100 µM (inactive) | > 100 µM (inactive) | > 100 µM (inactive) | > 100 µM (inactive) | > 100 µM (inactive) | > 100 µM (inactive)
5 | COC(=O)C1C(=O)C(C(=O)OC)C2CCC1N2C (stereo not given) | 96.6 µM (inactive) | 35 µM (inactive) | 76.9 µM (inactive) | 15.8 µM (inactive) | > 100 µM (inactive) | 92.5 µM (inactive) | 18.3 µM (inactive) | > 100 µM (inactive) | > 100 µM (inactive) | 21.5 µM (inactive) | 39.8 µM (inactive) | 34.4 µM (inactive) | 9.08 µM (inactive) | 24.8 µM (inactive) | 19.9 µM (inactive) | > 100 µM (inactive) | 29.4 µM (inactive) | 62.4 µM (inactive) | 20.2 µM (inactive) | 27.9 µM (inactive)
6 | Cc1ccc(S(=O)(=O)N2CCN(S(=O)(=O)c3ccc(C)cc3)CCN(S(=O)(=O)c3ccc(C)cc3)Cc3cc(Br)c(Br)cc3CN(S(=O)(=O)c3ccc(C)cc3)CC2)cc1 | > 100 µM (inactive) | > 100 µM (inactive) | > 100 µM (inactive) | > 100 µM (inactive) | > 100 µM (inactive) | > 100 µM (inactive) | > 100 µM (inactive) | 92.3 µM (inactive) | > 100 µM (inactive) | > 100 µM (inactive) | 44.1 µM (inactive) | > 100 µM (inactive) | > 100 µM (inactive) | > 100 µM (inactive) | > 100 µM (inactive) | 97.7 µM (inactive) | 46.9 µM (inactive) | 69.5 µM (inactive) | 44.9 µM (inactive) | > 100 µM (inactive)
7 | COC(=O)c1cc(C#N)[nH]c1-c1ccsc1 | > 100 µM (inactive) | 22.5 µM (inactive) | 95.5 µM (inactive) | 76.2 µM (inactive) | > 100 µM (inactive) | 51.2 µM (inactive) | > 100 µM (inactive) | > 100 µM (inactive) | > 100 µM (inactive) | > 100 µM (inactive) | > 100 µM (inactive) | > 100 µM (inactive) | 8.63 µM (inactive) | > 100 µM (inactive) | 18.2 µM (inactive) | > 100 µM (inactive) | > 100 µM (inactive) | > 100 µM (inactive) | > 100 µM (inactive) | > 100 µM (inactive)
8 | OC(C/C(=N\N=C(/CC(O)(C(F)(F)F)C(F)(F)F)c1ccccc1)c1ccccc1)(C(F)(F)F)C(F)(F)F | > 10 µM (inactive) | > 10 µM (inactive) | > 10 µM (inactive) | > 10 µM (inactive) | > 10 µM (inactive) | > 10 µM (inactive) | > 10 µM (inactive) | > 10 µM (inactive) | > 10 µM (inactive) | > 10 µM (inactive) | > 10 µM (inactive) | > 10 µM (inactive) | > 10 µM (inactive) | > 10 µM (inactive) | > 10 µM (inactive) | > 10 µM (inactive) | > 10 µM (inactive) | > 10 µM (inactive) | > 10 µM (inactive) | > 10 µM (inactive)
9 | CC1(C)OC[C@@H](C[C@H](O)COCc2ccccc2)O1 | > 100 µM (inactive) | > 100 µM (inactive) | > 100 µM (inactive) | > 100 µM (inactive) | > 100 µM (inactive) | > 100 µM (inactive) | > 100 µM (inactive) | > 100 µM (inactive) | > 100 µM (inactive) | > 100 µM (inactive) | > 100 µM (inactive) | > 100 µM (inactive) | > 100 µM (inactive) | > 100 µM (inactive) | > 100 µM (inactive) | > 100 µM (inactive) | > 100 µM (inactive) | > 100 µM (inactive) | > 100 µM (inactive) | > 100 µM (inactive)
10 | CCn1c(SCC(=O)NNC(=S)Nc2ccc(Cl)cc2)nc2ccccc2c1=O | 87.1 µM (inactive) | 24.5 µM (inactive) | 46.9 µM (inactive) | 33.1 µM (inactive) | 49 µM (inactive) | 43.9 µM (inactive) | 82 µM (inactive) | > 100 µM (inactive) | 70 µM (inactive) | 39.8 µM (inactive) | 40 µM (inactive) | 56.6 µM (inactive) | 30.8 µM (inactive) | 42.1 µM (inactive) | 29.9 µM (inactive) | 83 µM (inactive) | 27.2 µM (inactive) | 37.3 µM (inactive) | 42.2 µM (inactive) | 43 µM (inactive)
11 | Cc1cc(C)nc(NC(=S)Nc2cccc(Cl)c2)c1 | > 100 µM (inactive) | > 100 µM (inactive) | > 47.3 µM (inactive) | > 20 µM (inactive) | 65.5 µM (inactive) | 20.3 µM (inactive) | > 100 µM (inactive) | > 100 µM (inactive) | > 80.9 µM (inactive) | > 100 µM (inactive) | > 36.6 µM (inactive) | > 100 µM (inactive) | > 100 µM (inactive) | > 100 µM (inactive) | > 100 µM (inactive) | > 100 µM (inactive) | > 100 µM (inactive) | > 35.9 µM (inactive) | > 100 µM (inactive) | > 100 µM (inactive)
12 | CN(C)c1ccc(/C=C2\N=C(NN)NC2=O)cc1 | > 100 µM (inactive) | 49.3 µM (inactive) | 98.2 µM (inactive) | 65.8 µM (inactive) | 80.9 µM (inactive) | > 100 µM (inactive) | 86.3 µM (inactive) | > 100 µM (inactive) | > 100 µM (inactive) | 49.8 µM (inactive) | 79.4 µM (inactive) | > 100 µM (inactive) | 8.85 µM (inactive) | 58.6 µM (inactive) | 26.7 µM (inactive) | 41.1 µM (inactive) | 40.2 µM (inactive) | > 100 µM (inactive) | > 100 µM (inactive) | 55 µM (inactive)
13 | CCN(CC)CCNC(=O)c1cn2c(ccc3sc4ccccc4c(=O)c32)n1 | 6.93 µM (inactive) | 5.62 µM (inactive) | 15.3 µM (inactive) | 2.74 µM (inactive) | 10.1 µM (inactive) | 10 µM (inactive) | 12.8 µM (inactive) | 8.57 µM (inactive) | 6.25 µM (inactive) | 5.97 µM (inactive) | 7.89 µM (inactive) | 10.4 µM (inactive) | 0.502 µM (active) | 16.7 µM (inactive) | 5.26 µM (inactive) | 12.2 µM (inactive) | 10.8 µM (inactive) | 14.4 µM (inactive) | 11.6 µM (inactive) | 12.3 µM (inactive)
14 | Cc1cc(S(=O)(=O)Nc2nc(N)n(-c3ccccn3)n2)c(S)cc1Cl | > 100 µM (inactive) | > 100 µM (inactive) | > 100 µM (inactive) | > 100 µM (inactive) | > 100 µM (inactive) | > 100 µM (inactive) | > 100 µM (inactive) | > 100 µM (inactive) | > 100 µM (inactive) | > 100 µM (inactive) | > 100 µM (inactive) | > 100 µM (inactive) | > 100 µM (inactive) | > 100 µM (inactive) | > 100 µM (inactive) | > 100 µM (inactive) | > 100 µM (inactive) | > 100 µM (inactive) | > 100 µM (inactive) | > 100 µM (inactive)
